The values below are quoted from earlier work in article PMC6435570, “Zafirlukast Is a Dual Modulator of Human Soluble Epoxide Hydrolase and Peroxisome Proliferator-Activated Receptor γ” (Frontiers in Pharmacology, 2019).

Details of this data set: method as in Brocks et al., 1996; Knorr et al., 2001; Karonen et al., 2012. As to conditions: ref Brocks et al., 1996; Knorr et al., 2001; Karonen et al., 2012; cited from earlier work.

In the case of `COc1cc(C(=O)NS(=O)(=O)c2ccccc2C)ccc1Cc1cn(C)c2ccc(NC(=O)OC3CCCC3)cc12` [Zafirlukast, zafirlukast], the Plasma protein binding result is given as “High”.
